Results from US8530493B2, “Indolopyridines as Eg5 kinesin modulators” (4SC AG, priority 2006, dated 2013).

Test system: RKO p21 uninduced (proliferating) colon adenocarcinoma cells
Test: Alamar Blue cell viability assay, RKO p21 uninduced (proliferating)
Format: cell-based
Settings: Homo sapiens, Table B3, anti-proliferative/cytotoxic activity, 72 hours, read-out: −log EC50 RKO p21 uninduced (proliferating) (converted)
Method in brief: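 RKO p21 or p27 subclones grown without Ponasterone A, i.e. proliferating, exposed 24 h after seeding to semi-log compound dilutions in DMEM/10% FCS (1% DMSO controls) for 72 h at 37° C. Alamar Blue fluorescence (544/590 nm) read relative to untreated cells; EC50 from dose-response curves, given as −log EC50 (mol/l).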

SMILES	EC50 [nM]
CCN(CC)CCN1C(=O)N2[C@H](c3cccc(O)c3)c3[nH]c4cc(F)c(Cl)cc4c3C[C@@]2(C)C1=O (racemic) [Example 336, (3aSR,10RS)-6-Chloro-2-(2-diethylamino-ethyl)-7-fluoro-10-(3-hydroyx-phenyl)-3a-methyl-3a,4,9,10-tetrahydro-2,9,10a-triaza-cyclopenta[b]fluorene-1,3-dione]	39.8 to 251
CCN(CCCN1C(=O)N2[C@H](c3cccc(O)c3)c3[nH]c4ccc(Br)cc4c3C[C@@]2(C)C1=O)CCOC (racemic) [Example 217, (3aSR,10RS)-6-Bromo-2-{3-[ethyl-(2-methoxy-ethyl)-amino]-propyl}-10-(3-hydroxy-phenyl)-3a-methyl-3a,4,9,10-tetrahydro-2,9,10a-triaza-cyclopenta[b]fluorene-1,3-dione]	≤ 39.8
COCCNCCCN1C(=O)N2[C@H](c3cccc(O)c3)c3[nH]c4ccc(OC(F)F)cc4c3C[C@@]2(C)C1=O (racemic) [Example 205, (3aSR,10RS)-6-(1,1-Difluoro-methoxy)-10-(3-hydroxy-phenyl)-2-[3-(2-methoxy-ethylamino)-propyl]-3a-methyl-3a,4,9,10-tetrahydro-2,9,10a-triaza-cyclopenta[b]fluorene-1,3-dione]	39.8 to 251
C[C@@]12Cc3c([nH]c4ccc(OC(F)F)cc34)[C@@H](c3cccc(O)c3)N1C(=O)N(CCCN1CC=CC1)C2=O (racemic) [Example 238, (3aSR,10RS)-6-(1,1-Difluoro-methoxy)-2-[3-(2,5-dihydro-pyrrol-1-yl)-propyl]-10-(3-hydroxy-phenyl)-3a-methyl-3a,4,9,10-tetrahydro-2,9,10a-triaza-cyclopenta[b]fluorene-1,3-dione]	≤ 39.8
CN(CCO)CCCN1C(=O)N2[C@H](c3cccc(O)c3)c3[nH]c4ccc(OC(F)F)cc4c3C[C@@]2(C)C1=O (racemic) [Example 453, (3aSR,10RS)-6-(1,1-Difluoro-methoxy)-2-{3-[(2-hydroxy-ethyl)-methyl-amino]-propyl}-10-(3-hydroxy-phenyl)-3a-methyl-3a,4,9,10-tetrahydro-2,9,10a-triaza-cyclopenta[b]fluorene-1,3-dione]	≤ 39.8
COc1cc2c3c([nH]c2cc1F)[C@@H](c1cccc(O)c1)N1C(=O)N(CCCN2CCCC2)C(=O)[C@]1(C)C3 (racemic) [Example 322, (3aSR,10RS)-7-Fluoro-10-(3-hydroxy-phenyl)-6-methoxy-3a-methyl-2-(3-pyrrolidin-1-yl-propyl)-3a,4,9,10-tetrahydro-2,9,10a-triaza-cyclopenta[b]fluorene-1,3-dione]	39.8 to 251
CC1CCN(CCCN2C(=O)N3[C@H](c4cccc(O)c4)c4[nH]c5cc(F)c(Cl)cc5c4C[C@@]3(C)C2=O)CC1 (racemic) [Example 479, (3aSR,10RS)-6-Chloro-7-fluoro-10-(3-hydroxy-phenyl)-3a-methyl-2-[3-(4-methyl-piperidin-1-yl)-propyl]-3a,4,9,10-tetrahydro-2,9,10a-triaza-cyclopenta[b]fluorene-1,3-dione]	39.8 to 251
C[C@@]12Cc3c([nH]c4ccc(Br)cc34)[C@@H](c3cccc(O)c3)N1C(=O)N(CCN1CCCC1)C2=O (racemic) [Example 389, (3aSR,10RS)-6-Bromo-10-(3-hydroxy-phenyl)-3a-methyl-2-(2-pyrrolidin-1-yl-ethyl)-3a,4,9,10-tetrahydro-2,9,10a-triaza-cyclopenta[b]fluorene-1,3-dione]	≤ 39.8
C#CCNCCCN1C(=O)N2[C@H](c3cccc(O)c3)c3[nH]c4ccc(OCC)cc4c3C[C@@]2(C)C1=O (racemic) [Example 225, (3aSR,10RS)-6-Ethoxy-10-(3-hydroxy-phenyl)-3a-methyl-2-(3-prop-2-ynylamino-propyl)-3a,4,9,10-tetrahydro-2,9,10a-triaza-cyclopenta[b]fluorene-1,3-dione]	39.8 to 251
CC(=O)N1CCN(CCCN2C(=O)N3[C@H](c4cccc(O)c4)c4[nH]c5ccc(OC(F)F)cc5c4C[C@@]3(C)C2=O)CC1 (racemic) [Example 241, (3aSR,10RS)-2-[3-(4-Acetyl-piperazin-1-yl)-propyl]-6-(1,1-difluoro-methoxy)-10-(3-hydroxy-phenyl)-3a-methyl-3a,4,9,10-tetrahydro-2,9,10a-triaza-cyclopenta[b]fluoroene-1,3-dione]	39.8 to 251
C=CCN(C)CCCN1C(=O)N2[C@H](c3cccc(O)c3)c3[nH]c4ccc(Cl)cc4c3C[C@@]2(C)C1=O (racemic) [Example 169, (3aSR,10RS)-2-[3-(Allyl-methyl-amino)-propyl]-6-chloro-10-(3-hydroxy-phenyl)-3a-methyl-3a,4,9,10-tetrahydro-2,9,10a-triaza-cyclopenta[b]fluorene-1,3-dione]	≤ 39.8
CCOc1ccc2[nH]c3c(c2c1)C[C@@]1(C)C(=O)N(CCCN(CC)CCOC)C(=O)N1[C@@H]3c1cccc(O)c1 (racemic) [Example 195, (3aSR,10RS)-6-Ethoxy-2-{3-[ethyl-(2-methoxy-ethyl)-amino]-propyl}-10-(3-hydroxy-phenyl)-3a-methyl-3a,4,9,10-tetrahydro-2,9,10a-triaza-cyclopenta[b]fluorene-1,3-dione]	39.8 to 251
COc1cc2c3c([nH]c2cc1F)[C@@H](c1cccc(O)c1)N1C(=O)N(CCCN(C)C(C)C)C(=O)[C@]1(C)C3 (racemic) [Example 319, (3aSR,10RS)-7-Fluoro-10-(3-hydroxy-phenyl)-2-[3-(isopropyl-methyl-amino)-propyl]-6-methoxy-3a-methyl-3a,4,9,10-tetrahydro-2,9,10a-triaza-cyclopenta[b]fluorene-1,3-dione]	39.8 to 251
C[C@@]12Cc3c([nH]c4cc(F)c(Cl)cc34)[C@@H](c3cccc(O)c3)N1C(=O)N(CCCNCCO)C2=O (racemic) [Example 461, (3aSR,10RS)-6-Chloro-7-fluoro-2-[3-(2-hydroxy-ethylamino)-propyl]-10-(3-hydroxy-phenyl)-3a-methyl-3a,4,9,10-tetrahydro-2,9,10a-triaza-cyclopenta[b]fluorene-1,3-dione]	39.8 to 251
COc1ccc2[nH]c3c(c2c1)C[C@@]1(C)C(=O)N(CCCN(C)CCO)C(=O)N1[C@@H]3c1cccc(O)c1 [Example 542, (3aS,10R)-2-{3-[(2-Hydroxy-ethyl)-methyl-amino]-propyl}-10-(3-hydroxy-phenyl)-6-methoxy-3a-methyl-3a,4,9,10-tetrahydro-2,9,10a-triaza-cyclopenta[b]fluorene-1,3-dione]	≤ 39.8
C#CCN(C)CCCN1C(=O)N2[C@H](c3cccc(O)c3)c3[nH]c4ccc(Cl)cc4c3C[C@@]2(C)C1=O (racemic) [Example 170, (3aSR,10RS)-6-Chloro-10-(3-hydroxy-phenyl)-3a-methyl-2-[3-(methyl-prop-2-ynyl-amino)-propyl]-3a,4,9,10-tetrahydro-2,9,10a-triaza-cyclopenta[b]fluorene-1,3-dione]	39.8 to 251
C[C@@]12Cc3c([nH]c4ccc(OC(F)F)cc34)[C@@H](c3cccc(O)c3)N1C(=O)N(CCNCCO)C2=O (racemic) [Example 285, (3aSR,10RS)-6-(1,1-Difluoro-methoxy)-2-[2-(2-hydroxy-ethylamino)-ethyl]-10-(3-hydroxy-phenyl)-3a-methyl-3a,4,9,10-tetrahydro-2,9,10a-triaza-cyclopenta[b]fluorene-1,3-dione]	39.8 to 251
C=CCNCCN1C(=O)N2[C@H](c3cccc(O)c3)c3[nH]c4ccc(OC(F)F)cc4c3C[C@@]2(C)C1=O (racemic) [Example 274, (3aSR,10RS)-2-(2-Allylamino-ethyl)-6-(1,1-difluoro-methoxy)-10-(3-hydroxy-phenyl)-3a-methyl-3a,4,9,10-tetrahydro-2,9,10a-triaza-cyclopenta[b]fluorene-1,3-dione]	≤ 39.8
CC(C)CNCCCN1C(=O)N2[C@H](c3cccc(O)c3)c3[nH]c4ccc(OC(F)F)cc4c3C[C@@]2(C)C1=O (racemic) [Example 199, (3aSR,10RS)-6-(1,1-Difluoro-methoxy)-10-(3-hydroxy-phenyl)-2-(3-isobutylamino-propyl)-3a-methyl-3a,4,9,10-tetrahydro-2,9,10a-triaza-cyclopenta[b]fluorene-1,3-dione]	39.8 to 251
C#CCNCCCN1C(=O)N2[C@H](c3cccc(O)c3)c3[nH]c4cc(F)c(OC)cc4c3C[C@@]2(C)C1=O (racemic) [Example 309, (3aSR,10RS)-7-Fluoro-10-(3-hydroxy-phenyl)-6-methoxy-3a-methyl-2-(3-prop-2-ynylamino-propyl)-3a,4,9,10-tetrahydro-2,9,10a-triaza-cyclopenta[b]fluorene-1,3-dione]	39.8 to 251
C[C@@]12Cc3c([nH]c4cc(F)c(Cl)cc34)[C@@H](c3cccc(O)c3)N1C(=O)N(CCN1CC=CC1)C2=O (racemic) [Example 355, (3aSR,10RS)-6-Chloro-2-[2-(2,5-dihydro-pyrrol-1-yl)-ethyl]-7-fluoro-10-(3-hydroxy-phenyl)-3a-methyl-3a,4,9,10-tetrahydro-2,9,10a-triaza-cyclopenta[b]fluorene-1,3-dione]	39.8 to 251
C#CCN(C)CCN1C(=O)N2[C@H](c3cccc(O)c3)c3[nH]c4ccc(Br)cc4c3C[C@@]2(C)C1=O (racemic) [Example 382, (3aSR,10RS)-6-Bromo-10-(3-hydroxy-phenyl)-3a-methyl-2-[2-(methyl-prop-2-ynyl-amino)-ethyl]-3a,4,9,10-tetrahydro-2,9,10a-triaza-cyclopenta[b]fluorene-1,3-dione]	39.8 to 251
CN1CCN(CCCN2C(=O)N3[C@H](c4cccc(O)c4)c4[nH]c5ccc(Cl)cc5c4C[C@@]3(C)C2=O)CC1 (racemic) [Example 175, (3aSR,10RS)-6-Chloro-10-(3-hydroxy-phenyl)-3a-methyl-2-[3-(4-methyl-piperazin-1-yl)-propyl]-3a,4,9,10-tetrahydro-2,9,10a-triaza-cyclopenta[b]fluorene-1,3-dione]	≤ 39.8
